Results from patent US20210386720A1, “METHODS OF TREATING CNS TUMORS WITH TESETAXEL” (Odonate Therapeutics, Inc., priority 2018, published 2021).

Assays:
[1] = In vivo tissue distribution of 14C-tesetaxel in dogs; design: species or system dog; details: for t1/2 / Cerebellum / Cerebrum / Plasma: 0.6 mg/kg; for Cerebellum / Cerebrum / Plasma: 14 days post-dose, radioactivity
Description: (§1) The in vivo tissue distribution of tesetaxel was previously investigated in mice treated with ^14C-tesetaxel at 4 mg/kg and sacrificed between 1-168 hours.^1 Two additional studies have been conducted in dogs and monkeys.
(§2) Dogs and monkeys were dosed at 0.6 mg/kg and 1 mg/kg of ^14C-tesetaxel, respectively, and tissue distribution was assessed at 336 hours post-dose (14 days). These doses equate to ˜44% of the 27 mg/m^2 dose in an ongoing Phase 3 clinical study. In vivo radioactivity concentrations in the cerebrum and cerebellum were compared to plasma concentrations and mean tumor GI50 (concentration resulting in 50% tumor growth inhibition) determined by MTT assay in 23 tumor cell lines.

[2] = Human plasma and CNS tissue binding by rapid equilibrium dialysis; assay type: in vitro ADME
taxane-resistant tumors = test: Nonclinical studies of activity against taxane-resistant tumors
[3] = In vivo tissue distribution of 14C-tesetaxel in monkeys; design: species or system monkey; details: for t1/2 / Cerebellum / Cerebrum / Plasma: 1 mg/kg; for Cerebellum / Cerebrum / Plasma: 14 days post-dose, radioactivity
Description: as §1, §2

[4] = Terminal plasma half-life in humans
[5] = dog, single oral dose of 0.6 mg/kg, N=3
[6] = monkey, single oral dose of 1 mg/kg, N=3

Question: Which t1/2 ([1]; dog, IV) does the source give for `CC(=O)O[C@@]12CO[C@@H]1CC[C@@]1(C)[C@@H]3O[C@H](CN(C)C)O[C@@H]3C3=C(C)[C@@H](OC(=O)[C@H](O)[C@@H](NC(=O)OC(C)(C)C)c4ncccc4F)C[C@@](O)([C@@H](OC(=O)c4ccccc4)[C@@H]12)C3(C)C` [Tesetaxel] here?
Answer: 72 h

Question: And the Cerebellum ([1]; dog, IV)?
Answer: 7.8 ± 0.6 ng eq/g

Question: And the Cerebrum ([1]; dog, IV)?
Answer: 16.8 ± 2.9 ng eq/g

Question: What about the Plasma ([1]; dog, IV) of the same compound?
Answer: 0.5 ± 0.0 ng eq/mL

Question: And the t1/2 ([1]; dog, PO)?
Answer: 96 h

Question: What about the Cerebellum ([1]; dog, PO) of the same compound?
Answer: 6.1 ± 1.9 ng eq/g

Question: And the Cerebrum ([1]; dog, PO)?
Answer: 10.9 ± 4.0 ng eq/g

Question: What about the Plasma ([1]; dog, PO) of the same compound?
Answer: 0.9 ± 0.1 ng eq/mL

Question: What about the Cerebrum/Plasma ([1]; dog, single oral dose of 0.6 mg/kg, 14 days after dosing) of the same compound?
Answer: 12x

Question: And the “14C-Tesetaxel Radioactivity Concentration 14 Days after Dosing, Cerebrum (Mean ± SD)” value [1, 5]?
Answer: 10.9 ± 4.0 ng eq./g or mL

Question: And the “14C-Tesetaxel Radioactivity Concentration 14 Days after Dosing, Plasma (Mean ± SD)” value [1, 5]?
Answer: 0.9 ± 0.1 ng eq./g or mL

Question: What about the CNS penetration ([1]; dogs, oral (PO) or intravenous (IV) administration) of the same compound?
Answer: CNS penetration was observed

Question: And the CNS tissue binding ([2]; CNS tissue)?
Answer: 98.9%

Question: What about the Human plasma binding ([2]; plasma) of the same compound?
Answer: 98.2%

Question: What about the “Activity against taxane-resistant tumors” value (taxane-resistant tumors) of the same compound?
Answer: retain activity against taxane-resistant tumors

Question: And the t1/2 ([3]; monkey, IV)?
Answer: 72 h

Question: And the Cerebellum ([3]; monkey, IV)?
Answer: 18 ± 1.0 ng eq/g

Question: And the Cerebrum ([3]; monkey, IV)?
Answer: 21 ± 2.0 ng eq/g

Question: What about the Plasma ([3]; monkey, IV) of the same compound?
Answer: 1.0 ± 0.0 ng eq/mL

Question: And the t1/2 ([3]; monkey, PO)?
Answer: 52.8 h

Question: What about the Cerebellum ([3]; monkey, PO) of the same compound?
Answer: 4.4 ± 1.7 ng eq/g

Question: And the Cerebrum ([3]; monkey, PO)?
Answer: 6.5 ± 3.8 ng eq/g

Question: What about the Plasma ([3]; monkey, PO) of the same compound?
Answer: 0.9 ± 0.2 ng eq/mL

Question: What about the Cerebrum/Plasma ([3]; monkey, single oral dose of 1 mg/kg, 14 days after dosing) of the same compound?
Answer: 7x

Question: What about the “14C-Tesetaxel Radioactivity Concentration 14 Days after Dosing, Cerebrum (Mean ± SD)” value [3, 6] of the same compound?
Answer: 6.5 ± 3.8 ng eq./g or mL

Question: And the “14C-Tesetaxel Radioactivity Concentration 14 Days after Dosing, Plasma (Mean ± SD)” value [3, 6]?
Answer: 0.9 ± 0.2 ng eq./g or mL

Question: What about the CNS penetration ([3]; monkeys, oral (PO) or intravenous (IV) administration) of the same compound?
Answer: CNS penetration was observed

Question: And the “Terminal plasma half-life (t1/2)” value [4]?
Answer: ~190 h
